In patent US20250236608A1, “EGFR INHIBITORS” (Blueprint Medicines Corporation, priority 2022, published 2025):

Key:
EGFR (d746-750) = EGFR (d746-750) (Homo sapiens (Human), UniProt P00533, DEL746-750); experiment: Biochemical EGFR inhibition assay, EGFR (d746-750); conditions: Caliper mobility shift; 1.0 mM ATP or ATP Km; read-out: Enz EGFR_Exon19-del746-750 IC50
EGFR L858R = EGFR L858R (Homo sapiens (Human), UniProt P00533, L858R); experiment: Biochemical EGFR inhibition assay, EGFR L858R; conditions: Caliper mobility shift; 1.0 mM ATP or ATP Km; read-out: Enz EGFR_L858R IC50
Sequence of EGFR L858R (P00533 25-1210 L858R): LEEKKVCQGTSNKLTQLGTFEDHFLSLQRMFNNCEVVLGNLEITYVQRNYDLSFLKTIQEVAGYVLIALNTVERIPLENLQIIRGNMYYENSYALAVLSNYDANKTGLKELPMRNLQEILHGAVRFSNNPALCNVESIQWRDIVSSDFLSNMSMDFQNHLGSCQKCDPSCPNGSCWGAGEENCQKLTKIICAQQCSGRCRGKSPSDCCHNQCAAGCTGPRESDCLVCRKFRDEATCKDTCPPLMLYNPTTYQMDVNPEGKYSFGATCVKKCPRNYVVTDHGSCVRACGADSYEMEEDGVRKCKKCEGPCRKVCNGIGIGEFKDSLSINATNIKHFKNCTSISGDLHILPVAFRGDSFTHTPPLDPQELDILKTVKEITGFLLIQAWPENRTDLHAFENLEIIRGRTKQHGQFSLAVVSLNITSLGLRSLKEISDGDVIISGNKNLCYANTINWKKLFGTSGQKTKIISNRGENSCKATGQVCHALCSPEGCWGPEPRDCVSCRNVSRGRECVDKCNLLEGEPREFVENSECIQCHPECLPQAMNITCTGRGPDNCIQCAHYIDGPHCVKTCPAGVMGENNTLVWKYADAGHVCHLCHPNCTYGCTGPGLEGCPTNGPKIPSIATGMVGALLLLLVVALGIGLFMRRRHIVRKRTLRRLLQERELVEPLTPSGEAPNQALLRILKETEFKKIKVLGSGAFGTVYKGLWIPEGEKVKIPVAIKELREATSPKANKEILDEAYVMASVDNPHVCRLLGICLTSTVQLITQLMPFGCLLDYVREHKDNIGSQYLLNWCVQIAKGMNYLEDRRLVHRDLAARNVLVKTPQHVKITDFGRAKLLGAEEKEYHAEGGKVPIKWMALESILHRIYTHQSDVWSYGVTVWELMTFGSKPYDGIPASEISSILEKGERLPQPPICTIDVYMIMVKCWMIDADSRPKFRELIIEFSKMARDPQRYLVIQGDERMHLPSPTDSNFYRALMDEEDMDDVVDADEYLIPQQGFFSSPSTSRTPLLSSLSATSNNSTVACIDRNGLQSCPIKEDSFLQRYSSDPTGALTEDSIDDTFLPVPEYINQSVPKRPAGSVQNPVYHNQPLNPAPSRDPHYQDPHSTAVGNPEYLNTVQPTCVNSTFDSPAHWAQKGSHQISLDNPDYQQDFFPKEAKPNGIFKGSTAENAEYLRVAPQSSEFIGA

[1] = molecular target: pEGFR (Tyr1068) in PC-9 cells (Ex19Del) (Homo sapiens (Human), UniProt P00533, DEL746-750); experiment: PC-9 pEGFR AlphaLISA assay; assay type: cell-based; conditions: 4 hours incubation, p-EGFR (Tyr1068) AlphaLISA, read-out: Ext pEGFR_PC-9 Ex19Del IC50
Sequence of pEGFR (Tyr1068) in PC-9 cells (Ex19Del) (P00533 other isoform, or with tags, fused parts or gaps del 746-750): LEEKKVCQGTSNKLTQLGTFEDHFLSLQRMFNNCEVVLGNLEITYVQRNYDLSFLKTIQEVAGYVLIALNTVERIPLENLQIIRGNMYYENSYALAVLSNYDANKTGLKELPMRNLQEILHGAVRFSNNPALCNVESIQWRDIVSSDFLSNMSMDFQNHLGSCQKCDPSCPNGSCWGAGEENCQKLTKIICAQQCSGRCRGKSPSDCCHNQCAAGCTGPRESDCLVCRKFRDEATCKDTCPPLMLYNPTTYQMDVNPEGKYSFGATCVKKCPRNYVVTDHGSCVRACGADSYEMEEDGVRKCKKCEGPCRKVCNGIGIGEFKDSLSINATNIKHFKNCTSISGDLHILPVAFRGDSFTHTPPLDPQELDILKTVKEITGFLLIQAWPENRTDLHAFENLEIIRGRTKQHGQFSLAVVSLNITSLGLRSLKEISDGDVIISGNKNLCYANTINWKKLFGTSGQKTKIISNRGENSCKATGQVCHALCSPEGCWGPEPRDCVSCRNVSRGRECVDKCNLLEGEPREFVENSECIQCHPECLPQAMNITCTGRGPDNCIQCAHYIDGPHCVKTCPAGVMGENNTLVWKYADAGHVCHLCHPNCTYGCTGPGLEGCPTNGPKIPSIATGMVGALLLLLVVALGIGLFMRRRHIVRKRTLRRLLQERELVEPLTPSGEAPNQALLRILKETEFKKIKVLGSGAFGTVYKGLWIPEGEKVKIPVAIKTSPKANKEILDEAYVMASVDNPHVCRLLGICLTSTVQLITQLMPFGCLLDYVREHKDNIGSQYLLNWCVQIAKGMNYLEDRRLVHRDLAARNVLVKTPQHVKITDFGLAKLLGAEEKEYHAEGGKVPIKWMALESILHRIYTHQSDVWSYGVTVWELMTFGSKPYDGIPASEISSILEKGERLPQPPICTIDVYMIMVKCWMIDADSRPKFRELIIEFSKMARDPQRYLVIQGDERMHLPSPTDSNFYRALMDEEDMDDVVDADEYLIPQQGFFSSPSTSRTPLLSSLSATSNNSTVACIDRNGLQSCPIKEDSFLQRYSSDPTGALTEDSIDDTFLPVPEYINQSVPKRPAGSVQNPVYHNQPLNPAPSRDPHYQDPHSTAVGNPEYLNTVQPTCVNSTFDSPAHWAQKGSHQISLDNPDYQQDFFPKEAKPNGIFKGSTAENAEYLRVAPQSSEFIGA
Summary of the method: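 Phospho-EGFR (Tyr1068) was quantified by AlphaLISA SureFire Ultra in lysates of PC-9 cells exposed for 4 h to compound (4-fold, 10-point dilutions).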

Sequence of EGFR (d746-750) (P00533 other isoform, or with tags, fused parts or gaps del 1-694/del 746-750 limits assumed): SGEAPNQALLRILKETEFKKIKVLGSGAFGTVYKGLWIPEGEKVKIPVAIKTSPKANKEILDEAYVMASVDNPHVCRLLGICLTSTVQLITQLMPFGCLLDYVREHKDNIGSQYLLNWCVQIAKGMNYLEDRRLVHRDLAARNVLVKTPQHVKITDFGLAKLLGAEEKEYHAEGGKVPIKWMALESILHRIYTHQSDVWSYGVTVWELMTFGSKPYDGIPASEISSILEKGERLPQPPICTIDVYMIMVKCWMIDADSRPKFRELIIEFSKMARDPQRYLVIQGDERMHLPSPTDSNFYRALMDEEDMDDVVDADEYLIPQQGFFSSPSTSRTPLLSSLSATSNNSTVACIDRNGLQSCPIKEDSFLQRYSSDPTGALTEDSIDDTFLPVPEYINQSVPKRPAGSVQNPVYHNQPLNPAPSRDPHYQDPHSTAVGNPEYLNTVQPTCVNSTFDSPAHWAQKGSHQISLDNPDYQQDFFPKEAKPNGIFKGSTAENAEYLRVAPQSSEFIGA

Row | Structure (SMILES) | IC50 (EGFR (d746-750)) | IC50 (EGFR L858R) | IC50 [1]
1 | CCC(=O)Nc1cc2c(-c3cnn(C4COC4)c3-c3ccccc3)ncnc2cc1OC [Example 499] | 33 nM | 17 nM | 495 nM
2 | COc1cc2ncnc(-c3cn(C)nc3-c3ccccc3)c2nc1O[C@@H](C)c1nnc(C)o1 [Example 37, (S)-2-(1-((7-methoxy-4-(1-methyl-3-phenyl-1H-pyrazol-4-yl)pyrido[3,2-d]pyrimidin-6-yl)oxy)ethyl)-5-methyl-1,3,4-oxadiazole] | 2 nM | 5.3 nM | 4.6 nM
3 | CN(C)C12CC(C(=O)Nc3nc4c(-c5cn(C)nc5-c5ccccc5F)ncnc4cc3OC(F)F)(C1)C2 [Example 468, N-[7-(difluoromethoxy)-4-[3-(2-fluorophenyl)-1-methyl-1H-pyrazol-4-yl]pyrido[3,2-d]pyrimidin-6-yl]-3-(dimethylamino) bicyclo[1.1.1]pentane-1-carboxamide] | 7.4 nM | 60.4 nM | 22 nM
4 | COc1cc2ncnc(-c3cn(C)nc3-c3ccccc3)c2nc1OC(=O)N1CCN(C)C[C@@H]1C [Example 55, 7-methoxy-4-(1-methyl-3-phenyl-1H-pyrazol-4-yl)pyrido[3,2-d]pyrimidin-6-yl (S)-2,4-dimethylpiperazine-1-carboxylate] | 2 nM | 5 nM | 3.6 nM
5 | COc1cc2ncnc(-c3cn(C)nc3-c3ccccc3)c2cc1-c1cccc2cn(C)nc12 [Example 138, 7-methoxy-6-(2-methyl-2H-indazol-7-yl)-4-(1-methyl-3-phenyl-1H-pyrazol-4-yl)quinazoline] | 2.1 nM | 5.6 nM | 4.6 nM
6 | COc1cc2ncnc(-c3cn(C)nc3-c3ccc(Cl)cc3)c2nc1NC(=O)C12CC(N(C)C)(C1)C2 [Example 474, N-{4-[3-(4-chlorophenyl)-1-methyl-1H-pyrazol-4-yl]-7-methoxypyrido[3,2-d]pyrimidin-6-yl}-3-(dimethylamino) bicyclo[1.1.1]pentane-1-carboxamide] | 2 nM | 5.6 nM | 3.6 nM
7 | CN(C)C12CC(C(=O)Nc3nc4c(-c5cn(C)nc5-c5ccccc5F)ncnc4cc3OC3CC3)(C1)C2 [Example 469, N-{7-cyclopropoxy-4-[3-(2-fluorophenyl)-1-methyl-1H-pyrazol-4-yl]pyrido[3,2-d]pyrimidin-6-yl}-3-(dimethylamino) bicyclo[1.1.1]pentane-1-carboxamide] | 2.4 nM | 11.1 nM | 2.7 nM
8 | COc1cc2ncnc(-c3cn(C)nc3-c3ccccc3)c2cc1NC(=O)C1C2COCC21 (stereo not drawn) [Example 223, N-(7-methoxy-4-(1-methyl-3-phenyl-1H-pyrazol-4-yl)quinazolin-6-yl)-3-oxabicyclo[3.1.0]hexane-6-carboxamide] | 2.1 nM | 2.9 nM | 3.2 nM
9 | COc1cc2ncnc(-c3cn(C)nc3-c3ccccc3)c2nc1OC(C)c1nnc(C)o1 (stereo not drawn) [Example 27, 2-(1-((7-methoxy-4-(1-methyl-3-phenyl-1H-pyrazol-4-yl)pyrido[3,2-d]pyrimidin-6-yl)oxy)ethyl)-5-methyl-1,3,4-oxadiazole] | 3 nM | 5.5 nM | 8.1 nM
10 | Cn1cc(-c2ncnc3cc(C(F)(F)F)c(NC(=O)C45COCC4C5)nc23)c(-c2ccccc2)n1 (stereo not drawn) [Example 483, N-(4-(1-methyl-3-phenyl-1H-pyrazol-4-yl)-7-(trifluoromethyl)pyrido[3,2-d]pyrimidin-6-yl)-3-oxabicyclo[3.1.0]hexane-1-carboxamide] | 300 nM | 748 nM | 1710 nM
11 | COc1cc2ncnc(-c3cn(C)nc3-c3ccccc3)c2cc1NC(=O)c1ccncc1C [Example 191, N-(7-methoxy-4-(1-methyl-3-phenyl-1H-pyrazol-4-yl)quinazolin-6-yl)-3-methylisonicotinamide] | 1.8 nM | 3.8 nM | 6.4 nM
12 | Cn1cc(-c2ncnc3cc(OC(F)F)c(NC(=O)C4CC4)cc23)c(-c2ccccc2)n1 [Example 279, N-(7-(difluoromethoxy)-4-(1-methyl-3-phenyl-1H-pyrazol-4-yl)quinazolin-6-yl)cyclopropanecarboxamide] | 1.8 nM | 3.3 nM | 6.5 nM
13 | COc1cc2ncnc(-c3cn(C)nc3-c3ccccc3)c2cc1NC(=O)C(C)N(C)C (stereo not drawn) [Example 220, 2-(dimethylamino)-N-(7-methoxy-4-(1-methyl-3-phenyl-1H-pyrazol-4-yl)quinazolin-6-yl)propanamide] | 1.7 nM | 5 nM | 4.7 nM
14 | COc1cc2ncnc(-c3cn(C)nc3-c3ccccc3)c2nc1O[C@@H](C)c1cnnn1C [Example 42, (S)-7-methoxy-6-(1-(1-methyl-1H-1,2,3-triazol-5-yl)ethoxy)-4-(1-methyl-3-phenyl-1H-pyrazol-4-yl)pyrido[3,2-d]pyrimidine] | 2.9 nM | 9.6 nM | 43.9 nM

Compounds with a lower IC50 (EGFR (d746-750)), results first:

Row | IC50 (EGFR (d746-750)) | IC50 (EGFR L858R) | IC50 [1] | Structure (SMILES)
15 | 1 nM | 1.6 nM | 1.7 nM | CCOc1cc2ncnc(-c3cn(C)nc3-c3ccccc3)c2cc1NC(=O)[C@]12COC[C@H]1C2 [Example 291, (1S,5S)—N-(7-ethoxy-4-(1-methyl-3-phenyl-1H-pyrazol-4-yl)quinazolin-6-yl)-3-oxabicyclo[3.1.0]hexane-1-carboxamide]
16 | 0.9 nM | 1.3 nM | 1.9 nM | CCC(=O)Nc1cc2c(-c3cn(C)nc3-c3ccccc3)ncnc2cc1-c1ncccn1 [Example 449, N-(4-(1-methyl-3-phenyl-1H-pyrazol-4-yl)-7-(pyrimidin-2-yl)quinazolin-6-yl)propionamide]
17 | 0.9 nM | 1.9 nM | 3.2 nM | COc1cc2ncnc(-c3cn(CC(F)F)nc3-c3ccccc3)c2cc1C1(O)CC1 [Example 126, 1-(4-(1-(2,2-difluoroethyl)-3-phenyl-1H-pyrazol-4-yl)-7-methoxyquinazolin-6-yl)cyclopropan-1-ol]
18 | 0.8 nM | 1.8 nM | 1.4 nM | COc1cc2ncnc(-c3cn(C)nc3-c3ccccc3F)c2cc1NC(=O)[C@@]12COC[C@@H]1C2 (single isomer, unassigned) [Example 240, (1R,5R)—N-(4-(3-(2-fluorophenyl)-1-methyl-1H-pyrazol-4-yl)-7-methoxyquinazolin-6-yl)-3-oxabicyclo[3.1.0]hexane-1-carboxamide or (1S,5S)—N-(4-(3-(2-fluorophenyl)-1-methyl-1H-pyrazol-4-yl)-7-methoxyquinazolin-6-yl)-3-oxabicyclo[3.1.0]hexane-1-carboxamide]
19 | 0.7 nM | 1.4 nM | 2.5 nM | CCOc1cc2ncnc(-c3cn(C4CC4)nc3-c3ccccc3)c2cc1[C@@H](C)O (single isomer, unassigned) [Example 111, (R)-1-(4-(1-cyclopropyl-3-phenyl-1H-pyrazol-4-yl)-7-ethoxyquinazolin-6-yl)ethan-1-ol or (S)-1-(4-(1-cyclopropyl-3-phenyl-1H-pyrazol-4-yl)-7-ethoxyquinazolin-6-yl)ethan-1-ol]
20 | 0.7 nM | 1.9 nM | 1.4 nM | COc1cc2ncnc(-c3cn(C)nc3-c3ccc(F)cc3)c2nc1NC(=O)[C@]12COC[C@H]1C2 (single isomer, unassigned) [Example 381, (1S,5S)—N-(4-(3-(4-fluorophenyl)-1-methyl-1H-pyrazol-4-yl)-7-methoxypyrido[3,2-d]pyrimidin-6-yl)-3-oxabicyclo[3.1.0]hexane-1-carboxamide or (1R,5R)—N-(4-(3-(4-fluorophenyl)-1-methyl-1H-pyrazol-4-yl)-7-methoxypyrido[3,2-d]pyrimidin-6-yl)-3-oxabicyclo[3.1.0]hexane-1-carboxamide]
21 | 0.7 nM | 1.1 nM | 0.4 nM | Cn1cc(-c2ccc3c(-c4c[nH]nc4-c4ccccc4)ncnc3c2)cn1 [Example 441, 7-(1-methyl-1H-pyrazol-4-yl)-4-(3-phenyl-1H-pyrazol-4-yl)quinazoline]
22 | 0.6 nM | 1 nM | 0.8 nM | COc1cc2ncnc(-c3cn(CC4CC4)nc3-c3ccccc3)c2nc1NC(=O)[C@]12C[C@H]1CN(C)C2 (single isomer, unassigned) [Example 409, (1S,5S)—N-(4-(1-(cyclopropylmethyl)-3-phenyl-1H-pyrazol-4-yl)-7-methoxypyrido[3,2-d]pyrimidin-6-yl)-3-methyl-3-azabicyclo[3.1.0]hexane-1-carboxamide or (1R,5R)—N-(4-(1-(cyclopropylmethyl)-3-phenyl-1H-pyrazol-4-yl)-7-methoxypyrido[3,2-d]pyrimidin-6-yl)-3-methyl-3-azabicyclo[3.1.0]hexane-1-carboxamide]
23 | 0.5 nM | 4.8 nM | 0.4 nM | CCn1cc(-c2ncnc3cc(OC)c(NC(=O)[C@]45COC[C@H]4C5)nc23)c(-c2ccccc2)n1 (single isomer, unassigned) [Example 388, (1S,5S)—N-(4-(1-ethyl-3-phenyl-1H-pyrazol-4-yl)-7-methoxypyrido[3,2-d]pyrimidin-6-yl)-3-oxabicyclo[3.1.0]hexane-1-carboxamide or (1R,5R)—N-(4-(1-ethyl-3-phenyl-1H-pyrazol-4-yl)-7-methoxypyrido[3,2-d]pyrimidin-6-yl)-3-oxabicyclo[3.1.0]hexane-1-carboxamide]
24 | 0.4 nM | 0.7 nM | 1.7 nM | Cn1cc(-c2cc(F)c3c(-c4cn(C)nc4-c4ccccc4)ncnc3c2)cn1 [Example 439, 5-fluoro-7-(1-methyl-1H-pyrazol-4-yl)-4-(1-methyl-3-phenyl-1H-pyrazol-4-yl)quinazoline]
